Usually Ki stands for a dissociation constant, usually derived from enzyme kinetics or from competition with a known ligand. A high value points to a looser hold on the target.

In the assay the target is Beta-secretase 1 (Homo sapiens, UniProt P56817). In words: Binding affinity for human brain memapsin 2.
Sequence of Beta-secretase 1 (P56817 whole entry): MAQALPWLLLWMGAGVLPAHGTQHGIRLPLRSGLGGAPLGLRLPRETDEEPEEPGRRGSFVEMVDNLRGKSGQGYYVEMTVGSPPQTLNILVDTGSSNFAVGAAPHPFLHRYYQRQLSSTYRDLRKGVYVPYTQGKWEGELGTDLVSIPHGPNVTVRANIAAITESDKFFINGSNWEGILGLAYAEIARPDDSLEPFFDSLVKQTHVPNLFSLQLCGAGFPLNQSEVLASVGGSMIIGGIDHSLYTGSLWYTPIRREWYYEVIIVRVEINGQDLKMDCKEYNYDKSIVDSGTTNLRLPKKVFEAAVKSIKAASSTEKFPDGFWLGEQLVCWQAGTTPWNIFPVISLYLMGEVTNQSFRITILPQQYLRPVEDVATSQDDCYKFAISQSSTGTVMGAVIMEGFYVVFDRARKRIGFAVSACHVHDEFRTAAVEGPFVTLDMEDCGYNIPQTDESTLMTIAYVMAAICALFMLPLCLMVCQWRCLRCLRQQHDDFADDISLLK
The compound `CC(C)C[C@H](NC(=O)[C@H](CS(C)(=O)=O)NC(=O)OC(C)(C)C)[C@@H](O)C[C@@H](C)C(=O)N[C@H](C(=O)NCc1ccccc1)C(C)C` yielded a Ki of 1130 nM.

Turning to `CSCC[C@H](NC(=O)[C@@H](NC(=O)OC(C)(C)C)C(C)C)C(=O)N[C@@H](CC(C)C)[C@@H](O)C[C@@H](C)C(=O)N[C@H](C(=O)NCc1ccccc1)C(C)C`, the Ki stood at 2.5 nM.

Regarding `CC(C)C[C@H](NC(=O)[C@H](CC(N)=O)NC(=O)C(N)C(C)C)[C@@H](O)C[C@@H](C)C(=O)N[C@@H](C)C(=O)N[C@H](CCC(=O)O)C(=O)NC(Cc1ccccc1)C(=O)O` (some centres undefined), the Ki came out at 36 nM.

In turn, `CSCC[C@H](NC(=O)OC(C)(C)C)C(=O)N[C@@H](CC(C)C)[C@@H](O)C[C@@H](C)C(=O)N[C@H](C(=O)NCc1ccccc1)C(C)C` showed a Ki of 5810 nM.

As for `CC(C)C[C@H](NC(=O)[C@H](CC(N)=O)NC(=O)[C@@H](NC(=O)OC(C)(C)C)C(C)C)[C@@H](O)C[C@@H](C)C(=O)N[C@@H](C)C(=O)NCc1ccccc1`, the affinity, expressed as Ki, was 61.4 nM.

Turning to `CC(C)C[C@H](NC(=O)[C@H](CS(C)(=O)=O)NC(=O)[C@@H](NC(=O)OC(C)(C)C)C(C)C)[C@@H](O)C[C@@H](C)C(=O)N[C@H](C(=O)NCc1ccccc1)C(C)C`, the Ki is 9.4 nM.

On to `CC(C)C[C@H](NC(=O)[C@H](CC(N)=O)NC(=O)OC(C)(C)C)[C@@H](O)C[C@@H](C)C(=O)N[C@@H](C)C(=O)NCc1ccccc1`, for which affinity was put at a Ki of 22400 nM. Against the preceding compound, the Ki is about 2400-fold higher.

`CC(C)C[C@H](NC(=O)[C@H](CC(N)=O)NC(=O)[C@@H](NC(=O)OC(C)(C)C)C(C)C)[C@@H](O)C[C@@H](C)C(=O)N[C@H](C(=O)NCc1ccccc1)C(C)C` came in with a Ki of 5.9 nM.

`CSC[C@H](NC(=O)[C@@H](NC(=O)OC(C)(C)C)C(C)C)C(=O)N[C@@H](CC(C)C)[C@@H](O)C[C@@H](C)C(=O)N[C@H](C(=O)NCc1ccccc1)C(C)C` gave a Ki of 50.1 nM.
